A short description of data set [1]: Compatibility of co-solvent carrier with hyaluronic acid hydrogel (visually observed turbidity). It counts as physicochemical. To be noted: solvent added in 200 μl aliquots to 2 ml gel of 20 mg/ml hyaluronic acid in water; maximum added 5 ml. On the procedure: Co-solvent systems were prepared by the addition of water miscible organic solvents to a hyaluronic acid (HA) gel containing 20 mg/ml hyaluronic acid in water. The organic solvent was added with stirring in aliquots of 200 μl. After the addition of each aliquot, the mixture was allowed to stir for several minutes and observed for signs of turbidity or rapidly changing viscosity. At the first sign of visually observed turbidity, the volume of organic solvent added was noted and the ratio of co-solvent to water calculated. In the event that turbidity was not observed the maximum amount of solvent added was 5 ml to 2 ml of gel.

Data set [2] relates to T-cell. Conditions: cited from earlier work.
The subject of data set [3] is collagen induced arthritis in an animal model. Conditions: cited from earlier work.
In data set [4] the test system is normal chondrocytes and non-proliferating synoviocytes. To be noted: cited from earlier work.
In data set [5] the test system is synoviocytes. Conditions: cited from earlier work.
For data set [6], the system named is neutrophil. Conditions: cited from earlier work.
A short description of data set [7]: physchem. Conditions: aqueous with cosolvent or surfactant or cyclodextrin, thermodynamic from solid. The method, then:
After determining suitability in this manner, co-solvent systems may be further assessed in terms of biocompatibility. Solubility was determined as follows:
To a 1 ml aliquot of a co-solvent system described by the ratio of organic solvent to water was added precisely to 5 and 10 mg±10% paclitaxel. The mixtures were equilibrated at room temperature for 16 hours and observed for clarity and particulates in the liquid.

Data set [8] deals with AP-1. To be noted: via reduced AP-1 binding to DNA; cited from earlier work.

Values after ≈ are worked out from the molar mass of the structure shown.

Consider `CN1CCCC1=O` [N-methylpyrrolidone], for which, in data set [1], the “Max. amt. added to HA Gel without turbidity” value is reported as over 5 ml in 2 ml.

With `CCOCCOCCO` [Ethoxydiglycol], the “Max. amt. added to HA Gel without turbidity” value in data set [1] was found to be 2 ml in 2 ml.

On to `C[S+](C)[O-]` [Dimethylsulfoxide], for which the “Max. amt. added to HA Gel without turbidity” value in data set [1] was over 5 ml in 2 ml.

Usually solubility stands for how much of the substance goes into solution per volume. For the compound `CC(=O)O[C@H]1C(=O)[C@@]2(C)[C@H]([C@H](OC(=O)c3ccccc3)[C@]3(O)C[C@H](OC(=O)[C@H](O)[C@@H](NC(=O)c4ccccc4)c4ccccc4)C(C)=C1C3(C)C)[C@]1(OC(C)=O)CO[C@@H]1C[C@@H]2O` [paclitaxel], the T-cell function entry in data set [2] is “inhibits”. Also, the “T-cell response to stimuli” value in data set [2] was “decreases”. In data set [3], the collagen induced arthritis result is recorded as “inhibits”. Moreover, the “toxicity to non-proliferating cells” value in data set [4] is “non-toxic”. Besides, the apoptosis in synoviocytes result in data set [5] is listed as “induces”. In data set [5], the proliferation of synoviocytes entry was “prevents”. For the same compound, the neutrophil activation entry in data set [6] was “inhibits”. Besides, the solubility at 16 h in data set [7] (Dimethylsulfoxide:water co-solvent mixture) was under 5000 µg/mL; in data set [7] (Ethanol:water co-solvent mixture), 5000 to 10000 µg/mL (≈ 5.86 to 11.7 mM); in data set [7] (Ethoxydiglycol:water co-solvent mixture) it was under 5000 µg/mL; in data set [7] (N-methylpyrrolidone:water co-solvent mixture), over 10000 µg/mL; in data set [7] (PEG 200:water co-solvent mixture) it was 5000 to 10000 µg/mL (≈ 5.86 to 11.7 mM). For the same compound, the AP-1 transcription activity result in data set [8] is “inhibits”.

With `CCO` [Ethanol], the “Max. amt. added to HA Gel without turbidity” value in data set [1] was 4 ml in 2 ml.

These data come from US20070213393A1, “COMPOSITIONS AND METHODS FOR TREATING INFLAMMATORY CONDITIONS UTILIZING PROTEIN OR POLYSACCHARIDE CONTAINING ANTI-MICROTUBULE AGENTS” (ANGIOTECH INTERNATIONAL AG, priority 2001, published 2007).
